Consider one compound from US20050049278A1, “Benzo[1,3]dioxole compounds, pharmaceutical compositions thereof, and processes of making and using the same” (priority 2003, published 2005).

The subject of experiment [1] is HEK293 cells. Briefly: Cell cycle analysis by FACS of HEK293 cells. The conditions noted are these: HEK293, 50 μM, treated 16 to 24 hrs. The format is cell-based. The protocol: Fluorescence-activated cell sorting (FACS) analysis was used to examine the cell cycle state when the cells were incubated with compounds of formula (I) as well as several control compounds, including DMSO, noscapine (a known G2/M inhibitor), and colchicine (a known G2/M inhibitor).
In particular, HEK293 cells were cultured in DMEM media (Celigro) supplemented with 10% Fetal Bovine Serum (Tissue Culture Biologicals) and 1× Penicillin/Streptomycin/Glutamine (Gibco). The cells were grown at 37° C. with 5% CO2, plated in six-well plates at 2.5×10^6 cells/well, and treated for 16 to 24 hrs with the compounds at the concentrations shown in Table 1, below. The cells were then triturated off the bottom of the wells, washed 1× with PBS, then fixed with 70% ethanol, and stored at 4° C. before staining and FACS analysis.
The DNA content of cells was determined using a FacsVantage SE flow cytometry system (Becton Dickinson, San Jose, Calif.) and a Cellular DNA Flow Cytometric Analysis Kit (Roche Applied Science, Indianapolis, Ind.). Cell cycle analysis was performed using Cylchred 1.0.2 software.
(In general: Flow cytometry measures light scatter and fluorescence of single cells or particles in a stream.)

In experiment [2] the test system is HEK293 cells. The experiment is described as follows: HEK293 cell viability, CellTiter 96 Aqueous One Solution Cell Proliferation assay. To be noted: Homo sapiens, HEK293, 48 h, read-out: EC50. The format is cell-based. The procedure: The effect of various doses of compounds 5a, 5a,b, and 9a on the viability of HEK293 cells was examined using the CellTiter 96 Aqueous One Solution Cell Proliferation assay (Promega). The HEK293 cells were cultured in DMEM media (Cellgro) or phenol red-free DMEM (Gibco) supplemented with 10% Fetal Bovine Serum (Tissue Culture Biologicals) and 1× Penicillin/Streptomycin/Glutamine (Gibco). The cells were grown at 37° C. with 5% CO2. HEK293 cells were seeded into each well of a 96-well plate (5000 cells/well) and incubated overnight to allow the cells to attach. The culture media was removed and replaced with 100 μl of phenol red-free media containing the compounds 5a, 5a,b, and 9a at various concentrations. The cells were allowed to grow in the presence of the compounds for 48 hrs. At the end of the treatment, 20 μl of CellTiter 96 Aqueous One Solution reagent was added directly into each well, and the cells were incubated at 37° C. for 2 hrs. This reagent converts to a form that absorbs light at 490 nm by living cells. Thus, absorbance at 490 nm is proportional to the number of viable cells. The 490 nm absorbance was measured on a BioRad plate reader. Control wells containing no cells were included in this assay to correct for background absorbance.

In experiment [3] the target is T1, topoisomerase I (Homo sapiens, UniProt P11387).
T1 construct: purchased Sigma-Aldrich
T1 sequence (P11387 1-765): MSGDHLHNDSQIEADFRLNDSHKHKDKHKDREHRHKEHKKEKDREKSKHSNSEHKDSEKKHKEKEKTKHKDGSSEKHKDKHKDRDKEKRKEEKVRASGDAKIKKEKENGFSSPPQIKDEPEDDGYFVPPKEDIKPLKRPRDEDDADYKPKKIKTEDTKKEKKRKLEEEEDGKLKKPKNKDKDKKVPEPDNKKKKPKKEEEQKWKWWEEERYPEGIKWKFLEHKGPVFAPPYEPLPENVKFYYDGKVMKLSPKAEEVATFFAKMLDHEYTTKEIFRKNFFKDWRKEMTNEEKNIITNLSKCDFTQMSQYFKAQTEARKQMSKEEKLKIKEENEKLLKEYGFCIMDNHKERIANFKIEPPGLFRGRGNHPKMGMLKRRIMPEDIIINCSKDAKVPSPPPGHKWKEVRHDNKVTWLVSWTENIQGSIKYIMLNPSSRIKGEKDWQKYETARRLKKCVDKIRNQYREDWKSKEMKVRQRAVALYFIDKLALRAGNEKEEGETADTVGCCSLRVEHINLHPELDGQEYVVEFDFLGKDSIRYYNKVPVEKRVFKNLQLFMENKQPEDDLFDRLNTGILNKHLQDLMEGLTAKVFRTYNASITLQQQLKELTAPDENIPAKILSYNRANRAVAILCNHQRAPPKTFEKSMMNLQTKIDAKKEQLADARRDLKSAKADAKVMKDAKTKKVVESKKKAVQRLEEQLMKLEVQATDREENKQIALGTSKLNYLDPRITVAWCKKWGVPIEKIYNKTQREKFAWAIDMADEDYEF
Briefly: Topoisomerase I assay (supercoiled pBluescript DNA, agarose gel). To be noted: in vitro, FIG. 2. The format is biochemical. The protocol:
(§1) The ability of compounds that cause S-phase cell cycle arrest to inhibit topoisomerase I and topoisomerase II was examined. Analysis of topoisomerase activity was performed in 20 μl reactions with either topoisomerase I reaction buffer (10 mM TRIS-HCl, pH 7.5; 100 mM NaCl; 1 mM 2-mercaptoethanol) or topoisomerase II reaction buffer (50 mM Tris-HCl, pH 8; 120 mM KCl; 10 mM MgCl2; 0.5 mM dithiothreitol; 0.5 mM ATP; 30 μg BSA/ml) containing 125 ng supercoiled pBluescript DNA and either 2 U topoisomerase I (Sigma-Aldrich) or topoisomerase II (Topogen Inc.). After reaction at 37° C. for 20 minutes, the reactions were terminated through the addition of sodium dodecyl sulfate to 1% w/v and heating to 65° C. for 10 minutes. Proteinase K was then added to 10 μg/ml and digestion was allowed to proceed at 37° C. for 20 minutes before electrophoresis of the DNA in 0.8% agarose gels containing 0.5 μg/ml ethidium bromide for 18 hours at 75V in 0.5×TBE buffer. DNA was then visualized using a UV-transilluminator and the image was captured using a BioRad CCD camera and gel documentation system.

In experiment [4] the target is T2, topoisomerase II (Homo sapiens, UniProt P11388).
T2 construct: purchased Topogen Inc
The experiment is described as follows: Topoisomerase II assay (supercoiled pBluescript DNA, agarose gel). The class given is biochemical. The conditions noted are these: in vitro, FIG. 2. The protocol: as §1, with “Analysis” for “The ability of compounds that cause S-phase cell cycle arrest to inhibit topoisomerase I and topoisomerase II was examined. Analysis”

Usually EC50 stands for the concentration giving half of the maximal effect.

T2 sequence (P11388 whole entry): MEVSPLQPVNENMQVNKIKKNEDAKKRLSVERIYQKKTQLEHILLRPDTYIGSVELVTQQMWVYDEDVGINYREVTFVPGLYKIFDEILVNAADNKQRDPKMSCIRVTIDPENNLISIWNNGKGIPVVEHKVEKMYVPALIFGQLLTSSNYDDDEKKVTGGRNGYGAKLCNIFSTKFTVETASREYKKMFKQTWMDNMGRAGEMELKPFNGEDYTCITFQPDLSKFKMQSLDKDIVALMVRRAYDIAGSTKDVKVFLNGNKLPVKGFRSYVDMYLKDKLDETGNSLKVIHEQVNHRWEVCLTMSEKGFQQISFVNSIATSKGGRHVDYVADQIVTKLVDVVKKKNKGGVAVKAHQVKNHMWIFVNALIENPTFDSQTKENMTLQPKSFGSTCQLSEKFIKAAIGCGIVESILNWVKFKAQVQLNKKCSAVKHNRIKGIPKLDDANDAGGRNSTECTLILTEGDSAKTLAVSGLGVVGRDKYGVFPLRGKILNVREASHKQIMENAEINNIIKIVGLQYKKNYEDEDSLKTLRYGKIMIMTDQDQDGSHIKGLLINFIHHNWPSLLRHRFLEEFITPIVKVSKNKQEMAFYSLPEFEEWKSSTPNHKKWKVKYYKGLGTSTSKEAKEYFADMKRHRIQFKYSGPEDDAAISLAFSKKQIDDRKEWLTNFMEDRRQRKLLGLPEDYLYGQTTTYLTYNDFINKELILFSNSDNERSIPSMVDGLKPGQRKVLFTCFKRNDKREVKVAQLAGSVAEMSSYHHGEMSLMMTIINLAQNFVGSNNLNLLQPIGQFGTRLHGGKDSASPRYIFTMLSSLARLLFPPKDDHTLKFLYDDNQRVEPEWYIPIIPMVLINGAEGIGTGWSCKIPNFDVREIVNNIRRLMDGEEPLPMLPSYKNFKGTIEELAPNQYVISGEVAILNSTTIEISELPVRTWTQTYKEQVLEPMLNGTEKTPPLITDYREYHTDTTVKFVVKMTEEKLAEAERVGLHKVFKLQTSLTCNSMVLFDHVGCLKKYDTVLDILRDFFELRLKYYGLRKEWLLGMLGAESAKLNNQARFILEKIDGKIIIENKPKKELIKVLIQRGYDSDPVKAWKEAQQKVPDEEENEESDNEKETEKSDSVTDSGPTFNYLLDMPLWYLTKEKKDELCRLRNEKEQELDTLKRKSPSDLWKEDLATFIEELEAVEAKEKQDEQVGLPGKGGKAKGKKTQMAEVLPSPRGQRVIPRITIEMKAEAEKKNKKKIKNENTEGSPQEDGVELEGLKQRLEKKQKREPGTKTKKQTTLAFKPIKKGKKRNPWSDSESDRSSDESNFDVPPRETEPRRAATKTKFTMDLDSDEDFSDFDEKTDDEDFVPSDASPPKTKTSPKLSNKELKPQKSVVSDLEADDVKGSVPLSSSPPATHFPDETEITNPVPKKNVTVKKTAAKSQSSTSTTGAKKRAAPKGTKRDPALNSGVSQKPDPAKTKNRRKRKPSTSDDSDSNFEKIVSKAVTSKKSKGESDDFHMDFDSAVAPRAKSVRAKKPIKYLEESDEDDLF

On to `COc1ccc2c(c1OC)C(=O)O[C@@H]2[C@H]1c2c(cc3c(c2OC)OCO3)CCN1C` [Noscapine, noscapine, reference compound], for which, in experiment [1], the “Percent of Cells in G1” value is recorded as 19.2%, the “Percent of Cells in G2/M” value is on record as 49.6% and the “Percent of Cells in S” value is recorded as 31.1%. For the same compound, in experiment [2], the EC50 is approximately 10 µM. For the same compound, the “inhibition of topoisomerase I activity” value in experiment [3] was “neither etoposide nor noscapine inhibited”. Besides, in experiment [4], the “inhibition of topoisomerase II activity” value is listed as “neither topotecan nor noscapine acts as inhibitors”.
